Measurements from paper PMC8400955 (Pharmaceuticals, 2021).
Read-outs that look alike come from different tables or passages of the source.

Columns and labels:
CYP3A4 = assay: CYP induction (enzyme activity) in cryopreserved human hepatocytes, CYP3A4; type: in vitro ADME; settings: for fold induction at 72 h, 0.15 µM / fold induction at 72 h, 1.5 µM / fold induction at 72 h, 5 µM / fold induction at 72 h, 15 µM: human, plated cryopreserved human hepatocytes
[1] = Plasma protein binding by equilibrium dialysis, monkey; type: in vitro ADME; settings: plasma (EDTA-K2 as anticoagulant)
Method: (§1) The in vitro binding of ZB716 to plasma proteins was determined by equilibrium dialysis technique in mouse, rat, dog, monkey, and human plasma (EDTA-K2 as anticoagulant), over the concentration range of 0.1–10 μM. The free concentration of ZB716 was below the lower limit of quantitation at 0.1, 1, and 10 μM in human, monkey, dog, rat, and mouse plasma.
(§2) The equilibrium dialysis method was used to investigate the in vitro binding of ZB716 to human, monkey, dog, rat, and mouse plasma proteins. The dialysis phosphate buffer solution (100 mM, pH 7.4) and plasma samples containing 0.1, 1, and 10 μM of ZB716 were added to separate chambers of dialysis wells of the HTDialysis device. The dialysis plate was placed in an incubator at 37 °C with 5% CO2 at approximately 100 rpm for 6 h. After incubation, the seal was removed, and 50 μL each of post-dialysis samples was pipetted from both the buffer and plasma chambers into fresh 96-well plates. The samples were analyzed via UPLC–MS/MS. The bound fraction, unbound fraction, recovery (%), and remaining (%) were calculated by Equations (2)–(5):%Unbound = (Conc.buffer chamber/Conc.plasma chamber) × 100(2) %Bound = 100% − %Unbound (3) %Recovery = (Conc.buffer chamber + Conc.plasma chamber)/Conc.Total sample × 100 (4) %Remaining = Conc.6h/Conc.0h × 100 (5)

monkey plasma proteins = assay: as above; type: in vitro ADME; settings: for Remaining: 6 h
Method: as §1, §2

CYP1A2 = target: T1, CYP1A2 (Homo sapiens, UniProt P05177); assay: CYP inhibition in human liver microsomes, CYP1A2; type: in vitro ADME; settings: HLM, marker substrate Phenacetin
T1 sequence (P05177 1-516): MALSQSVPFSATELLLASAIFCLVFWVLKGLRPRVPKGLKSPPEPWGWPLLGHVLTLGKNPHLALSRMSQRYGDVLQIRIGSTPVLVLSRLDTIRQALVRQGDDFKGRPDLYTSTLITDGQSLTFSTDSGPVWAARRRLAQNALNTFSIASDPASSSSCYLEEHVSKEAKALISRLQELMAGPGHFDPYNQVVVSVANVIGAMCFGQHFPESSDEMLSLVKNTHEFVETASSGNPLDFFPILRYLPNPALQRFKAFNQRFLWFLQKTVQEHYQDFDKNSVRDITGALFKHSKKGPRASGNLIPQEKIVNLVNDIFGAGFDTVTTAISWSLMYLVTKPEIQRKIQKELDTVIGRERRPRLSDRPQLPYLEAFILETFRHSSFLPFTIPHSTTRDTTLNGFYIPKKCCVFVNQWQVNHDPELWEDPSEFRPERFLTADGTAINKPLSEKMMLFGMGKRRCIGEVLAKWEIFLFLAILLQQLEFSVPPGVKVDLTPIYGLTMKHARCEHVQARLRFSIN
Method: . The inhibition of CYP2B6 and 3A4 (when midazolam was used as the substrate) by ZB716 was not observed. The inhibitory potential of ZB716 on human CYP enzyme activities appears relatively low.
The final concentrations of ZB716 in the incubation system were 0, 0.05, 0.15, 0.5, 1.5, 5, and 15 µM (final organic solvent concentration ≤ 1%). […] . […] The concentrations of the isoform-specific metabolites derived from marker substrates were measured by UPLC–MS/MS. The IC50 values were calculated from the percentages of the rate of the metabolite formation relative to non-inhibited controls vs. the concentrations of ZB716 or positive control inhibitors. All incubations were performed in triplicate. The mean of the enzyme activity (% of non-inhibited control) for each concentration was plotted against the log inhibitor concentration, and fitted to an IC50 curve.

[2] = Single-dose PK and bioavailability of ZB716 in rats; type: in vivo; settings: Sprague Dawley, rat, plasma; for bioavailability: PO 6 mg/kg/day vs IV 2 mg/kg/day
[3] = female, single dose, IV 2 mg/kg/day, F
[4] = female, single dose, PO 6 mg/kg/day, F
[5] = female, single dose, PO 30 mg/kg/day, F
[6] = female, single dose, PO 100 mg/kg/day, F
[7] = female, single dose, PO 400 mg/kg/day, F
[8] = male, single dose, IV 2 mg/kg/day, M
[9] = male, single dose, PO 6 mg/kg/day, M
[10] = male, single dose, PO 30 mg/kg/day, M
[11] = male, single dose, PO 100 mg/kg/day, M
[12] = male, single dose, PO 400 mg/kg/day, M

## C[C@]12CC[C@@H]3c4ccc(B(O)O)cc4C[C@@H](CCCCCCCCC[S+]([O-])CCCC(F)(F)C(F)(F)F)[C@H]3[C@@H]1CC[C@@H]2O (stereo partly shown) [ZB716, fulvestrant-3-boronic acid]
CYP3A4; donor one, 0.15 µM
  Percent of Control: −4.55%
  fold induction at 72 h, 0.15 µM: 0.774 ± 0.078
CYP3A4; donor one, 1.5 µM
  Percent of Control: −7.08%
  fold induction at 72 h, 1.5 µM: 0.649 ± 0.085
CYP3A4; donor one, 5 µM
  Percent of Control: 4.85%
  fold induction at 72 h, 5 µM: 1.24 ± 0.18
CYP3A4; donor one, 15 µM
  Percent of Control: 9.95%
  fold induction at 72 h, 15 µM: 1.49 ± 0.21
CYP3A4; donor three, 0.15 µM
  Percent of Control: −5.29%
  fold induction at 72 h, 0.15 µM: 0.61 ± 0.043
CYP3A4; donor three, 1.5 µM
  Percent of Control: −2.34%
  fold induction at 72 h, 1.5 µM: 0.828 ± 0.082
CYP3A4; donor three, 5 µM
  Percent of Control: −6.62%
  fold induction at 72 h, 5 µM: 0.513 ± 0.081
CYP3A4; donor three, 15 µM
  Percent of Control: −9.26%
  fold induction at 72 h, 15 µM: 0.318 ± 0.005
CYP3A4; donor two, 0.15 µM
  Percent of Control: −2.26%
  fold induction at 72 h, 0.15 µM: 0.797 ± 0.1
CYP3A4; donor two, 1.5 µM
  Percent of Control: 4.83%
  fold induction at 72 h, 1.5 µM: 1.43 ± 0.14
CYP3A4; donor two, 5 µM
  Percent of Control: 22.4%
  fold induction at 72 h, 5 µM: 3.01 ± 0.33
CYP3A4; donor two, 15 µM
  Percent of Control: 21.5%
  fold induction at 72 h, 15 µM: 2.92 ± 0.25
[1]; pH 7.4, 0.1 μM
  recovery at 6 h, 0.1 μM: < 68.2%
[1]; pH 7.4, 1 μM
  recovery at 6 h, 1 μM: < 70%
[1]; pH 7.4, 10 μM
  recovery at 6 h, 10 μM: < 87.2%
Monkey plasma proteins; 0.1 μM
  Bound: >96.4%
  Unbound: <3.63%
  Remaining: 65.3 ± 2.8%
Monkey plasma proteins; 1 μM
  Bound: >99.6%
  Unbound: <0.326%
  Remaining: 70.9 ± 4.8%
Monkey plasma proteins; 10 μM
  Bound: >99.97%
  Unbound: <0.0308%
  Remaining: 93.9 ± 10.0%
CYP1A2
  IC50: > 15 µM
[2]; both sexes, single oral administration, mostly, post-dose, read-out: Tmax
  Tmax: 30 to 120 min
[2]; female, F
  bioavailability: 5.98%
[2]; [3]
  AUC(0-t): 6440 ng·h/mL
  Cmax: 4530 ng/mL
[2]; female, single dose, IV 2 mg/kg/day, F, read-out: Tmax (median)
  Tmax: 5 min
[2]; [4]
  AUC(0-t): 1160 ng·h/mL
  Cmax: 347 ng/mL
[2]; female, single dose, PO 6 mg/kg/day, F, read-out: Tmax (median)
  Tmax: 30 min
[2]; [5]
  AUC(0-t): 15700 ng·h/mL
  Cmax: 3520 ng/mL
[2]; female, single dose, PO 30 mg/kg/day, F, read-out: Tmax (median)
  Tmax: 60 min
[2]; [6]
  AUC(0-t): 30500 ng·h/mL
  Cmax: 3590 ng/mL
[2]; female, single dose, PO 100 mg/kg/day, F, read-out: Tmax (median)
  Tmax: 30 min
[2]; [7]
  AUC(0-t): 55600 ng·h/mL
  Cmax: 4310 ng/mL
[2]; female, single dose, PO 400 mg/kg/day, F, read-out: Tmax (median)
  Tmax: 60 min
[2]; male, M
  bioavailability: 6.36%
[2]; [8]
  AUC(0-t): 4910 ng·h/mL
  Cmax: 5370 ng/mL
[2]; male, single dose, IV 2 mg/kg/day, M, read-out: Tmax (median)
  Tmax: 5 min
[2]; [9]
  AUC(0-t): 936 ng·h/mL
  Cmax: 321 ng/mL
[2]; male, single dose, PO 6 mg/kg/day, M, read-out: Tmax (median)
  Tmax: 30 min
[2]; [10]
  AUC(0-t): 5410 ng·h/mL
  Cmax: 1720 ng/mL
[2]; male, single dose, PO 30 mg/kg/day, M, read-out: Tmax (median)
  Tmax: 120 min
[2]; [11]
  AUC(0-t): 12500 ng·h/mL
  Cmax: 3010 ng/mL
[2]; male, single dose, PO 100 mg/kg/day, M, read-out: Tmax (median)
  Tmax: 30 min
[2]; [12]
  AUC(0-t): 32600 ng·h/mL
  Cmax: 2860 ng/mL
[2]; male, single dose, PO 400 mg/kg/day, M, read-out: Tmax (median)
  Tmax: 30 min
